Data from patent US12227520B2 (priority 2019, dated 2025).
pEC50: −log10 of the molar value. Read-outs that look alike come from different tables or passages of the source.

Key:
[1] = Cytotoxicity assay in MT-4 cells; assay type: cell-based, human; settings: human, uninfected MT-4 cells, 5 days incubation; read-out: CC50
Summary of the method: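 For cytotoxicity, uninfected MT-4 cells were incubated with compounds 5 days at 37 °C, with 10 μM puromycin marking base cytotoxicity. Parallel plates used HIV-1 IIIB-infected (1:250 stock dilution) or mock cells with 5 μM AZT and no-drug controls. Read-out: CellTiter-Glo chemiluminescence.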

[2] = test system: HIV-1 (IIIB); experiment: Antiviral assay in MT-4 cells (HIV MT-4 antiviral assay); assay type: cell-based; settings: Human immunodeficiency virus 1, IIIB, MT4, 120 h, HIV-1 (IIIB) in MT-4 cells, 5 days incubation; read-out: EC50
Summary of the method: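 Read-out is CellTiter-Glo chemiluminescence after 5-day culture at 37° C, giving protection of MT-4 cells from HIV-1 IIIB cytopathicity. Compounds tested in 1:3 dilution series in complete RPMI; controls were no drug, mock infection and 5 μM AZT.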

[3] = test system: pLai RLuc reporter virus; experiment: microbe, parasite or virus in culture; assay type: cell-based, HIV; settings: Human immunodeficiency virus 1, 72 h
Summary of the method: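 Read-out is Renilla luciferase after 72 h at 37 °C in MT-4 cells infected 2 h beforehand with pLai RLuc reporter virus; compounds diluted 1:3.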

[4] = read-out: Antiviral Serum Shift RLuc 50% HS, HS/CCM (RPMI media, 10% FBS, 50% HS, 1% P/S), 72-h incubation
[5] = read-out: Antiviral Serum Shift RLuc CCM, CCM (RPMI media, 10% FBS, 1% P/S), 72-h incubation

| SMILES | CC50 at 5 days [1] [nM] | pEC50 [2] | pEC50 [3, 4] | pEC50 [3, 5] |
| --- | --- | --- | --- | --- |
| O=C(NCc1ccc(F)cc1F)c1cn2c(c(O)c1=O)C(=O)N1CCCC[C@@]2(CF)C1 [Example 162-1, (7S)—N-(2,4-difluorobenzyl)-7-(fluoromethyl)-12-hydroxy-1,11-dioxo-1,4,5,6,7,11-hexahydro-3H-2,7-methanopyrido[1,2-a][1,4]diazonine-10-carboxamide] | 16200 | 8.94 | 7.92 | 10.17 |
| O=C(NCc1ccc(F)cc1F)c1cn2c(c(O)c1=O)C(=O)N1CCCC[C@]2(CF)C1 [Example 162-2, (7R)—N-(2,4-difluorobenzyl)-7-(fluoromethyl)-12-hydroxy-1,11-dioxo-1,4,5,6,7,11-hexahydro-3H-2,7-methanopyrido[1,2-a][1,4]diazonine-10-carboxamide] | 14400 | 8.59 | 7.81 | 9.93 |
| O=C(NCc1c(F)cc(F)cc1F)c1cn2c(c(O)c1=O)C(=O)N1CCCC[C@@]2(CF)C1 [Example 163-1, (7S)—N-(2,4,6-trifluorobenzyl)-7-(fluoromethyl)-12-hydroxy-1,11-dioxo-1,4,5,6,7,11-hexahydro-3H-2,7-methanopyrido[1,2-a][1,4]diazonine-10-carboxamide] | 20200 | 8.90 | 7.92 | 10.17 |
| O=C(NCc1c(F)cc(F)cc1F)c1cn2c(c(O)c1=O)C(=O)N1CCCC[C@]2(CF)C1 [Example 163-2, (7R)—N-(2,4,6-trifluorobenzyl)-7-(fluoromethyl)-12-hydroxy-1,11-dioxo-1,4,5,6,7,11-hexahydro-3H-2,7-methanopyrido[1,2-a][1,4]diazonine-10-carboxamide] | 13800 | 8.64 | 7.81 | 9.93 |
| O=C(NCc1c(F)cc(F)cc1F)c1cn2c(c(O)c1=O)C(=O)N1C[C@@H]2CCC[C@@H]1CF [Example 164, (3R,7S)-3-(fluoromethyl)-12-hydroxy-1,11-dioxo-N-(2,4,6-trifluorobenzyl)-1,4,5,6,7,11-hexahydro-3H-2,7-methanopyrido[1,2-a][1,4]diazonine-10-carboxamide] | 10400 | 8.92 | 7.88 | 9.48 |
| O=C(NCc1ccc(F)cc1F)c1cn2c(c(O)c1=O)C(=O)N1C[C@@H]2CCC[C@@H]1CF [Example 165, (3R,7S)—N-(2,4-difluorobenzyl)-3-(fluoromethyl)-12-hydroxy-1,11-dioxo-1,4,5,6,7,11-hexahydro-3H-2,7-methanopyrido[1,2-a][1,4]diazonine-10-carboxamide] | 9610 | 8.96 | 8.14 | 9.45 |
| O=C(NCc1ccc(F)cc1)c1cn2c(c(O)c1=O)C(=O)N1CCCC[C@H]2C1 [Example 166, (7S)—N-(4-fluorobenzyl)-12-hydroxy-1,11-dioxo-1,4,5,6,7,11-hexahydro-3H-2,7-methanopyrido[1,2-a][1,4]diazonine-10-carboxamide] | 15600 | 8.60 | 8.79 | 9.23 |
| C[C@]12CC=CCN(C1)C(=O)c1c(O)c(=O)c(C(=O)NCc3ccc(F)cc3F)cn12 [Example 168, (7S)—N-(2,4-difluorobenzyl)-12-hydroxy-7-methyl-1,11-dioxo-1,6,7,11-tetrahydro-3H-2,7-methanopyrido[1,2-a][1,4]diazonine-10-carboxamide] | 13700 | 8.76 | 7.38 | 9.73 |
| O=C(NCc1ccc(F)cc1F)c1cn2c(c(O)c1=O)C(=O)N1CCC=C[C@H]2C1 [Example 169, (7S)—N-(2,4-difluorobenzyl)-12-hydroxy-1,11-dioxo-1,4,7,11-tetrahydro-3H-2,7-methanopyrido[1,2-a][1,4]diazonine-10-carboxamide] | 11800 | 8.85 | 8.54 | 9.49 |
| O=C(NCc1ccc(F)c(Cl)c1F)c1cn2c(c(O)c1=O)C(=O)N1CCC=C[C@H]2C1 [Example 171, (7S)—N-(3-chloro-2,4-difluorobenzyl)-12-hydroxy-1,11-dioxo-1,4,7,11-tetrahydro-3H-2,7-methanopyrido[1,2-a][1,4]diazonine-10-carboxamide] | 4190 | 9.02 | 8.07 | 9.41 |
| O=C(NCc1ccc(F)cc1F)c1cn2c(c(O)c1=O)C(=O)N1CCC[C@@H](F)[C@@H]2C1 [Example 172-1, (6R,7S)—N-(2,4-difluorobenzyl)-6-fluoro-12-hydroxy-1,11-dioxo-1,4,5,6,7,11-hexahydro-3H-2,7-methanopyrido[1,2-a][1,4]diazonine-10-carboxamide] | 15600 | 8.62 | 7.37 | 9.16 |
| O=C(NCc1ccc(F)cc1F)c1cn2c(c(O)c1=O)C(=O)N1CCCC(F)[C@H]2C1 (stereo partly drawn) [Example 172-2, (7R)—N-(2,4-difluorobenzyl)-6-fluoro-12-hydroxy-1,11-dioxo-1,4,5,6,7,11-hexahydro-3H-2,7-methanopyrido[1,2-a][1,4]diazonine-10-carboxamide] | 12800 | 8.83 | 8.58 | 9.38 |
| C[C@]12CCCCN(C1)C(=O)c1c(O)c(=O)c(C(=O)NCc3ccc(F)cc3F)cn12 [Example 173, (7S)—N-(2,4-difluorobenzyl)-12-hydroxy-7-methyl-1,11-dioxo-1,4,5,6,7,11-hexahydro-3H-2,7-methanopyrido[1,2-a][1,4]diazonine-10-carboxamide] | 12500 | 8.91 | 7.86 | 9.44 |
| C[C@@H]1CC[C@H](C)N2C[C@H]1n1cc(C(=O)NCc3c(F)cc(F)cc3F)c(=O)c(O)c1C2=O [Example 174, (3S,6R,7S)-12-hydroxy-3,6-dimethyl-1,11-dioxo-N-(2,4,6-trifluorobenzyl)-1,4,5,6,7,11-hexahydro-3H-2,7-methanopyrido[1,2-a][1,4]diazonine-10-carboxamide] | 11400 | 8.90 | 7.23 | 9.46 |
| C[C@@H]1CC[C@H](C)N2C[C@H]1n1cc(C(=O)NCc3ccc(F)cc3F)c(=O)c(O)c1C2=O [Example 175, (3S,6R,7S)—N-(2,4-difluorobenzyl)-12-hydroxy-3,6-dimethyl-1,11-dioxo-1,4,5,6,7,11-hexahydro-3H-2,7-methanopyrido[1,2-a][1,4]diazonine-10-carboxamide] | 7740 | 8.89 | 7.68 | 9.39 |
| C[C@@H]1C=C[C@H](C)N2C[C@H]1n1cc(C(=O)NCc3c(F)cc(F)cc3F)c(=O)c(O)c1C2=O [Example 176, (3S,6R,7S)-12-hydroxy-3,6-dimethyl-1,11-dioxo-N-(2,4,6-trifluorobenzyl)-1,6,7,11-tetrahydro-3H-2,7-methanopyrido[1,2-a][1,4]diazonine-10-carboxamide] | 7770 | 9.08 | 7.78 | 9.58 |
| C[C@@H]1C=C[C@H](C)N2C[C@H]1n1cc(C(=O)NCc3ccc(F)cc3F)c(=O)c(O)c1C2=O [Example 177, (3S,6R,7S)—N-(2,4-difluorobenzyl)-12-hydroxy-3,6-dimethyl-1,11-dioxo-1,6,7,11-tetrahydro-3H-2,7-methanopyrido[1,2-a][1,4]diazonine-10-carboxamide] | 8540 | 9.04 | 7.96 | 9.53 |
| O=C(NCc1c(F)cc(F)cc1F)c1cn2c(c(O)c1=O)C(=O)N1CC(F)CC[C@H]2C1 (stereo partly drawn) [Example 178, (7S)-4-fluoro-12-hydroxy-1,11-dioxo-N-(2,4,6-trifluorobenzyl)-1,4,5,6,7,11-hexahydro-3H-2,7-methanopyrido[1,2-a][1,4]diazonine-10-carboxamide] | 16700 | 8.67 | 8.18 | 9.37 |
| C[C@]1(F)CCCN2C[C@H]1n1cc(C(=O)NCc3c(F)cc(F)cc3F)c(=O)c(O)c1C2=O [Example 179, (6S,7R)-6-fluoro-12-hydroxy-6-methyl-1,11-dioxo-N-(2,4,6-trifluorobenzyl)-1,4,5,6,7,11-hexahydro-3H-2,7-methanopyrido[1,2-a][1,4]diazonine-10-carboxamide] | 13100 | 8.83 | 9.10 | 9.47 |
| C[C@H]1C=C[C@H](C)N2C[C@H]1n1cc(C(=O)NCc3c(F)cc(F)cc3F)c(=O)c(O)c1C2=O [Example 183, (3S,6S,7S)-12-hydroxy-3,6-dimethyl-1,11-dioxo-N-(2,4,6-trifluorobenzyl)-1,6,7,11-tetrahydro-3H-2,7-methanopyrido[1,2-a][1,4]diazonine-10-carboxamide] | 10500 | 9.06 | 8.24 | 9.58 |
| O=C1c2c(O)c(=O)c(-c3nnc(Cc4ccc(F)cc4F)s3)cn2[C@H]2CCCCN1C2 [Example 185, (7S)-10-(5-(2,4-difluorobenzyl)-1,3,4-thiadiazol-2-yl)-12-hydroxy-4,5,6,7-tetrahydro-3H-2,7-methanopyrido[1,2-a][1,4]diazonine-1,11-dione] | 3550 | 8.48 | 8.31 | 9.01 |
